# Data published in patent US12662478B2, “ATF6 modulators and uses thereof” (Altos Labs, Inc., priority 2019, dated 2026).
# Columns and labels:
# ATF6 [1] = target: T1, ATF6 (Homo sapiens, UniProt P18850); assay: ERSE ATF6-luciferase assay in absence of ER stress (U2-OS ATF6 TRE-luciferase reporter cells); assay type: cell-based; conditions: in absence of ER stress (no Tg), normalized to maximal activation with Tg; for activation at 1 µM / activation at 10 µM: U2OS, 8 h; for activation at 1 µM / ATF6 activity @ 1 μM-No Tg [%]: 1 μM test compound; for activation at 1 µM: Table 3-3, read-out: ATF6 activity @ 1 μM-No Tg [%]; for activation at 10 µM / ATF6 activity @ 10 μM - No Tg [%]: 10 μM test compound; for activation at 10 µM: Table 3-3, read-out: ATF6 activity @ 10 μM - No Tg [%]; for ATF6 activity @ 10 μM - No Tg [%] / ATF6 activity @ 1 μM-No Tg [%]: 8 hr, Table 3-3
# T1 construct: endogenous in cells; host or cells: U2-OS (ATCC HTB-96) stably transduced with the Cignal Lenti ATF6 luc reporter (Qiagen #CLS-6031L)
# T1 sequence (P18850 1-670): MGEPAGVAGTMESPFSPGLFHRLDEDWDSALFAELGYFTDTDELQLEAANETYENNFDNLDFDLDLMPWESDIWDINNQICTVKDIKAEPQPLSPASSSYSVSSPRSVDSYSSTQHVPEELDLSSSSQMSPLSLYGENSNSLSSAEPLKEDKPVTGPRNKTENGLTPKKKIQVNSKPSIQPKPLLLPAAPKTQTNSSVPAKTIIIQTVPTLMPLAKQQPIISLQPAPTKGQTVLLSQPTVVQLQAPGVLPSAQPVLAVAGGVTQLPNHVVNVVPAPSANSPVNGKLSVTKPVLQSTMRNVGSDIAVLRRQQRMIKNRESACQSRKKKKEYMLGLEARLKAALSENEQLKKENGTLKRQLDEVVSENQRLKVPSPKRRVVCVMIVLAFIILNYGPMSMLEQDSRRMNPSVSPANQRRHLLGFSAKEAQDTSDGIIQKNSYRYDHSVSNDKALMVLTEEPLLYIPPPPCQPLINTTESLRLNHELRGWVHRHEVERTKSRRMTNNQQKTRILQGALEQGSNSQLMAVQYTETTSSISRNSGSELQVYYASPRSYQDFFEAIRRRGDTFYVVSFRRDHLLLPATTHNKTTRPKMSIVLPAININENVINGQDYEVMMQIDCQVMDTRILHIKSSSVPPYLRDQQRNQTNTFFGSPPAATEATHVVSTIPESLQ
# Experimental: (§1) To understand how exemplary compounds of the invention modulate the activity of ATF6 in absence or presence of endoplasmic reticulum (ER) stress, a Human bone osteosarcoma (U2-OS)-based TRE-luciferase reporter stable cell line was generated to determine the modulation of transcription of ATF6 target genes.
# (§2) U2-OS cells were obtained from the American Type Culture Collection (ATCC HTB-96, ATCC Manassas, VA) and were cultured with growing medium containing Dulbecco's Modified Eagle's Medium (DMEM) (Cat. No.: SH30023.02, HyClone) supplemented with fetal bovine serum (FBS) 10% (Cat. No.: 16000044, Gibco) and 1% penicillin-streptomycin antibiotic cocktail (Cat. No.: SV30010, Hyclone).
# (§3) Cignal Lenti ATF6 luc reporter (Qiagen #CLS-6031L) was used to produce a stable cell line in U2-OS cells (U2-OS ATF6 TRE-luciferase reporter). The lenti ATF6 reporter is a preparation of replication incompetent, VSV-g pseudotyped lentivirus particles expressing the firefly luciferase gene under the control of a minimal (m)CMV promoter and tandem repeats of the ATF6 transcriptional response element (TRE). The number of response elements as well as the intervening sequence between response elements has been experimentally optimized to maximize the signal to noise ratio.
# (§4) Exemplary compounds of the invention and reference compounds were prepared from powder as 10 mM stock solutions in dimethyl sulfoxide (DMSO; Cat. No. #D2650, Sigma Aldrich) and stored at −80° C. in presence of N2 neutral atmosphere.
# (§5) For the primary screening, 40,000 U2-OS ATF6 TRE-luciferase reporter cells were plated in poly-D-lysine (Cat. No.: P2636, Sigma) pre-coated white 96-well plates (Thermo Scientific Nunc #136101) with 100 μL of growing medium. Cells were incubated in humidified chambers for 24 hr.
# For testing exemplary compounds in absence of ER-stress, cells were treated for 8 hr with 100 μL growing medium containing either vehicle (DMSO), 1 or 10 μM test compound or 0.1 μM Tg. The final concentration of DMSO in each well was kept at 0.3%. Plates were incubated in humidified chambers.
# After 8 hr of incubation, plates were cooled down to room temperature for 10 min prior to luciferase assays. Luciferase reactions were performed as above. Luminescence was read by integration of 1 s with a gain of 110 in a Synergy 4 Microplate reader. All measurements were carried out in triplicate.
# The average activity determined from the wells containing vehicle only (DMSO, 0% of ATF6 activity) was used as blank and subtracted from the rest of measurements. The percentage of modulation of exemplary compound was calculated by normalizing values to potential maximal activation with Tg.
# ATF6 activities of exemplary compounds at 1 and 10 μM in absence of Tg-induced ER stress in the U2-OS ATF6 TRE-luciferase reporter cells were determined and are shown in Table 3-2, and Table 3-3.
# ATF6 [2] = target: T1, ATF6; assay: ERSE ATF6-luciferase assay in presence of Tg-induced ER stress (U2-OS ATF6 TRE-luciferase reporter cells); assay type: cell-based; conditions: in presence of ER stress (thapsigargin), Tg only = 100%, Table 2-3; for activity at 1 µM / activity at 10 µM: U2OS, 8 h; for activity at 1 µM / ATF6 activity @ 1 μM [%]: 1 μM test compound; for activity at 10 µM / ATF6 activity @ 10 μM [%]: 10 μM test compound; for ATF6 activity @ 1 μM [%] / ATF6 activity @ 10 μM [%]: 8 hr
# Experimental: as §1, §2, §3, §4, §5
# For testing exemplary compounds in presence of ER-stress, cells were pre-treated for 30 min with 50 μL growing medium containing either vehicle (DMSO), 1 or 10 μM test compound. After this pre-incubation, 50 μL of a solution containing 0.2 μM of the ER stress-inducer thapsigargin (Tg) was added to the appropriate wells. The Tg solution also contains vehicle or test compounds at 1 or 10 μM as indicated. The final concentration of DMSO in each well was kept at 0.3%. Plates were incubated for 8 hr in humidified chambers.
# After the 8 hr incubation, plates were cooled down to room temperature for 10 min prior to the luciferase assays. Luciferase reactions were performed using Luciferase Assay System (Cat. No.: E4550, Promega). Briefly, each well was washed with 100 μl of PBS 1× and, then, 20 μl of lysis reagent was added into each well. Plates were shaken for 10 min and, then, 50 μl of Luciferase Assay Reagent was added to each well. Luminescence was determined by integration of 1 s with a gain of 110 in a Synergy 4 Microplate reader. All measurements were carried out in triplicate.
# The average activity determined from the wells containing vehicle only (DMSO, 0% of ATF6 activity) was used as blank and subtracted from the rest of measurements. The average activity determined from the wells containing Tg only was used as 100% of ATF6 activity. The percentage of modulation of exemplary compounds was calculated by normalizing values to potential maximal activation with Tg.
# ATF6 activities of exemplary compounds at 1 and 10 μM in presence Tg-induced ER stress tested in the U2-OS ATF6 TRE-luciferase reporter cells were determined and are shown in Table 2-2 and Table 3-2.
Structure (SMILES),activation at 1 µM (ATF6 [1]) [%],activation at 10 µM (ATF6 [1]) [%],activity at 1 µM (ATF6 [2]) [%],activity at 10 µM (ATF6 [2]) [%],ATF6 activity @ 10 μM - No Tg [%] (ATF6 [1]),ATF6 activity @ 1 μM [%] (ATF6 [2]),ATF6 activity @ 1 μM-No Tg [%] (ATF6 [1]),ATF6 activity @ 10 μM [%] (ATF6 [2])
"O=C(Nc1cnn(CC2CCCC2)c1)c1cc(-c2ccco2)on1 [Compound 3-2, N-(1-(cyclopentylmethyl)-1H-pyrazol-4-yl)-5-(furan-2-yl)isoxazole-3-carboxamide]",0 to 25,0 to 25,> 150,> 150,–,–,–,–
"O=C(Nc1cnn(C2CNC2)c1)c1cc(-c2ccco2)on1 [Compound 3-3, N-(1-(azetidin-3-yl)-1H-pyrazol-4-yl)-5-(furan-2-yl)isoxazole-3-carboxamide]",0 to 25,–,125 to 150,–,–,–,–,–
"O=C(Nc1cnn(C2CCNC2)c1)c1cc(-c2ccco2)on1 (centres unmarked) [Compound 3-4, 5-(furan-2-yl)-N-(1-(pyrrolidin-3-yl)-1H-pyrazol-4-yl)isoxazole-3-carboxamide]",0 to 25,0 to 25,125 to 150,> 150,–,–,–,–
"CC(C1CCCC1)n1cc(NC(=O)c2cc(-c3ccco3)on2)cn1 (centres unmarked) [Compound 3-5, N-(1-(1-cyclopentylethyl)-1H-pyrazol-4-yl)-5-(furan-2-yl)isoxazole-3-carboxamide]",0 to 25,0 to 25,125 to 150,> 150,–,–,–,–
"O=C(Nc1cnn(Cc2c(Cl)cncc2Cl)c1)c1cc(-c2ccco2)on1 [Compound 3-6, N-(1-((3,5-dichloropyridin-4-yl)methyl)-1H-pyrazol-4-yl)-5-(furan-2-yl)isoxazole-3-carboxamide]",0 to 25,0 to 25,100 to 125,125 to 150,–,–,–,–
"O=C(Nc1cnn(C2CCOC2)c1)c1cc(-c2cccs2)on1 (centres unmarked) [Compound 3-19, N-(1-(tetrahydrofuran-3-yl)-1H-pyrazol-4-yl)-5-(thiophen-2-yl)isoxazole-3-carboxamide]",0 to 25,25 to 50,> 150,> 150,–,–,–,–
"CC(C1CCOC1)n1cc(NC(=O)c2cc(-c3ccco3)on2)cn1 (centres unmarked) [Compound 3-24, 5-(furan-2-yl)-N-(1-(1-(tetrahydrofuran-3-yl)ethyl)-1H-pyrazol-4-yl)isoxazole-3-carboxamide]",0 to 25,–,–,> 150,++ (++ refers to 25% < % activity < 50% at 1 or 10 μM test compound),+ (+ refers to 100% < % activity < 125% at 1 or 10 μM),–,–
"CC(C1CCOC1)n1cc(NC(=O)c2cc(-c3ccco3)on2)cn1 (centres unmarked) [Compound 3-25, 5-(furan-2-yl)-N-(1-(1-(tetrahydrofuran-3-yl)ethyl)-1H-pyrazol-4-yl)isoxazole-3-carboxamide]",–,–,–,–,+ (+ refers to 0% < % activity < 25% at 1 or 10 μM test compound),+ (+ refers to 100% < % activity < 125% at 1 or 10 μM),+ (+ refers to 0% < % activity < 25% at 1 or 10 μM test compound),+++ (+++ refers to >150% at 1 or 10 μM test compound)
"CC(C1CCOC1)n1cc(NC(=O)c2cc(-c3ccco3)on2)cn1 (centres unmarked) [Compound 3-26, 5-(furan-2-yl)-N-(1-(1-(tetrahydrofuran-3-yl)ethyl)-1H-pyrazol-4-yl)isoxazole-3-carboxamide]",–,–,–,–,+++ (+++ refers to % activity >50 % at 1 or 10 μM test compound),+++ (+++ refers to >150% at 1 or 10 μM test compound),+ (+ refers to 0% < % activity < 25% at 1 or 10 μM test compound),+++ (+++ refers to >150% at 1 or 10 μM test compound)
"CC(C1CCOC1)n1cc(NC(=O)c2cc(-c3ccco3)on2)cn1 (centres unmarked) [Compound 3-27, 5-(furan-2-yl)-N-(1-(1-(tetrahydrofuran-3-yl)ethyl)-1H-pyrazol-4-yl)isoxazole-3-carboxamide]",–,–,–,–,++ (++ refers to 25% < % activity < 50% at 1 or 10 μM test compound),+ (+ refers to 100% < % activity < 125% at 1 or 10 μM),+ (+ refers to 0% < % activity < 25% at 1 or 10 μM test compound),+++ (+++ refers to >150% at 1 or 10 μM test compound)
